Measured values published in patent US8722849B2, “Polypeptides” (Novo Nordisk A/S, priority 2011, dated 2014).
Values after ≈ are worked out from the molar mass of the structure shown. Where two headings read alike, the source gives them in different places. Starred links: 1 amine or outer side, 2 acyl side, 3 side chain; linkers in the order of their positions; H or OH if unused. Positions of bridges follow the written chain, without caps; N, C: chain ends. Residues, ends and D or L forms follow the SMILES beside them. Groups on a side chain read outwards from the residue. *: point of attachment. C20 diacid = O=C(O)CCCCCCCCCCCCCCCCCCC(=O)*; C18 diacid = O=C(O)CCCCCCCCCCCCCCCCC(=O)*; γGlu = O=C(O)[C@H](CCC(=O)[*:2])N[*:1]; AEEA = NCCOCCOCC(=O)O

Key:
[1] = system: food intake; test: Assay (I) efficacy testing on appetite (food intake), ad libitum fed rat model; type: in vivo, Sprague Dawley (SD) rats
Method in brief: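 Sprague Dawley rats (200–250 g), single-housed under reversed light cycle with free food and water, got one ip, po or sc dose of 0.01–3 mg/kg just before lights-off. Individual food intake recorded hourly for 7 h, then at 24 h and sometimes 48 h; groups of 5–8, Grubbs outliers excluded.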

[2] = Assay (IV) determination of solubility; type: physicochemical
Method in brief: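 Polypeptide in water (~500 nmol/ml stock) was mixed 1:1 with 100 mM buffers from pH 3.0 to 8.0 (glycylglycine pH 3.0–5.0; bistrispropane pH 6.0–8.0). After 18 hours at room temperature, samples were centrifuged and the polypeptide remaining in solution was quantified by HPLC.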

[3] = bistrispropane buffer, pH 6, pH 6.0, read-out: Solubility pH 6.0
[4] = bistrispropane buffer, pH 6.5, pH 6.5, read-out: Solubility pH 6.5
[5] = bistrispropane buffer, pH 7, pH 7.0, 18 hours at room temperature, Table 3, read-out: Solubility pH 7.0
[6] = bistrispropane buffer, pH 7, pH 7.0, read-out: Solubility pH 7.0
[7] = bistrispropane buffer, pH 7.5, pH 7.5, read-out: Solubility pH 7.5
[8] = bistrispropane buffer, pH 8, pH 8.0, read-out: Solubility pH 8.0
[9] = glycylglycine buffer, pH 3, pH 3.0, read-out: Solubility pH 3.0
[10] = glycylglycine buffer, pH 4, pH 4.0, 18 hours at room temperature, Table 2, read-out: Solubility pH 4.0
[11] = glycylglycine buffer, pH 4, pH 4.0, read-out: Solubility pH 4.0
[12] = glycylglycine buffer, pH 5, pH 5.0, read-out: Solubility pH 5.0
[13] = bistrispropane buffer, pH 7, pH 7.0, Table 8, read-out: Solubility pH 7.0

Row | SMILES | Food intake reduction 0-24 h 3 nmol/kg (%) ([1]; 0-24 h) | Food intake reduction 24-48 h 3 nmol/kg (%) ([1]; 24-48 h) | solubility at 18 h [2, 3] [µM] | solubility at 18 h [2, 4] [µM] | solubility at 18 h [2, 5] [µM] | solubility at 18 h [2, 6] [µM] | solubility at 18 h [2, 7] [µM] | solubility at 18 h [2, 8] [µM] | solubility at 18 h [2, 9] [µM] | solubility at 18 h [2, 10] [µM] | solubility at 18 h [2, 11] [µM] | solubility at 18 h [2, 12] [µM] | solubility at 18 h [2, 13] [µM] | solubility at 18 h ([2]; bistrispropane buffer, pH 7, pH 7.0, Table 9, read-out: Solubility pH 7.0) [µM] | solubility at 18 h ([2]; bistrispropane buffer, pH 7.5, pH 7.5, Table 9, read-out: Solubility pH 7.5) [µM] | Food intake reduction 0-24 h 30 nmol/kg (%) ([1]; 0-24 h, 30 nmol/kg) | Food intake reduction 24-48 h 30 nmol/kg (%) ([1]; 24-48 h, 30 nmol/kg)
1 | CC[C@H](C)[C@H](NC(=O)[C@@H]1CCCN1C(=O)CNC(=O)[C@H](Cc1ccccc1)NC(=O)[C@H](CC(N)=O)NC(=O)[C@H](CC(N)=O)NC(=O)[C@H](CO)NC(=O)[C@H](CO)NC(=O)[C@H](CCCNC(=N)N)NC(=O)[C@H](Cc1c[nH]cn1)NC(=O)[C@H](CC(C)C)NC(=O)[C@H](Cc1ccccc1)NC(=O)[C@H](CCC(=O)O)NC(=O)[C@H](C)NC(=O)[C@H](CC(C)C)NC(=O)[C@H](CCCNC(=N)N)NC(=O)[C@H](CCC(N)=O)NC(=O)[C@@H](NC(=O)[C@H](C)NC(=O)[C@@H]1CSSC[C@H](NC(=O)[C@H](CCC(=O)O)NC(=O)CC[C@H](NC(=O)CCCCCCCCCCCCCCCCCCC(=O)O)C(=O)O)C(=O)N[C@@H](CC(N)=O)C(=O)N[C@@H]([C@@H](C)O)C(=O)N[C@@H](C)C(=O)N[C@@H]([C@@H](C)O)C(=O)N1)[C@@H](C)O)C(=O)N[C@@H](CC(C)C)C(=O)N1CCC[C@H]1C(=O)N1CCC[C@H]1C(=O)N[C@H](C(=O)N[C@@H](CC(N)=O)C(=O)N[C@H](C(=O)NCC(=O)N[C@@H](CO)C(=O)N[C@@H](CC(N)=O)C(=O)N[C@H](C(=O)N1CCC[C@H]1C(N)=O)[C@@H](C)O)C(C)C)[C@@H](C)O [Example 10, N-alpha-[(S)-4-Carboxy-4-(19-carboxynonadecanoylamino)butyryl]-[Glu1,Glu14,His17,Arg18,Pro37]-pramlintide] ({C20 diacid-γGlu}-ECNTATCATQRLAEFLHRSSNNFGPILPPTNVGSNTP-NH2; disulfide 2-7) | 50 | 40 | > 200 | > 200 | > 200 | > 200 | > 200 | > 200 | > 200 | > 200 | > 200 | > 200 | – | – | – | – | –
2 | CC[C@H](C)[C@H](NC(=O)[C@@H]1CCCN1C(=O)CNC(=O)[C@H](Cc1ccccc1)NC(=O)[C@H](CC(N)=O)NC(=O)[C@H](CCC(N)=O)NC(=O)[C@H](CO)NC(=O)[C@H](CO)NC(=O)[C@H](Cc1c[nH]cn1)NC(=O)[C@H](Cc1c[nH]cn1)NC(=O)[C@H](CC(C)C)NC(=O)[C@H](Cc1ccccc1)NC(=O)[C@H](CCC(=O)O)NC(=O)[C@H](C)NC(=O)[C@H](CC(C)C)NC(=O)[C@H](CCCNC(=N)N)NC(=O)[C@H](CCC(N)=O)NC(=O)[C@@H](NC(=O)[C@H](C)NC(=O)[C@@H]1CSSC[C@H](NC(=O)[C@H](CCCCN)NC(=O)CC[C@H](NC(=O)CCCCCCCCCCCCCCCCCCC(=O)O)C(=O)O)C(=O)N[C@@H](CC(N)=O)C(=O)N[C@@H]([C@@H](C)O)C(=O)N[C@@H](C)C(=O)N[C@@H]([C@@H](C)O)C(=O)N1)[C@@H](C)O)C(=O)N[C@@H](CC(C)C)C(=O)N1CCC[C@H]1C(=O)N1CCC[C@H]1C(=O)N[C@H](C(=O)N[C@@H](CC(N)=O)C(=O)N[C@H](C(=O)NCC(=O)N[C@@H](CO)C(=O)N[C@@H](Cc1c[nH]cn1)C(=O)N[C@H](C(=O)N[C@@H](Cc1ccc(O)cc1)C(N)=O)[C@@H](C)O)C(C)C)[C@@H](C)O [Example 117, N-alpha-[(S)-4-Carboxy-4-(19-carboxynonadecanoylamino)butyryl]-[Glu14,His17,Gln21,His35)-pramlintide] ({C20 diacid-γGlu}-KCNTATCATQRLAEFLHHSSQNFGPILPPTNVGSHTY-NH2; disulfide 2-7 (inferred); C-terminus assumed) | 50 | 35 | > 200 | > 200 | > 200 | > 200 | > 200 | > 200 | > 200 | > 200 | > 200 | > 200 | > 200 | > 200 | > 200 | – | –
3 | CC[C@H](C)[C@H](NC(=O)[C@H](CCCCNC(=O)COCCOCCNC(=O)COCCOCCNC(=O)CC[C@H](NC(=O)CCCCCCCCCCCCCCCCC(=O)O)C(=O)O)NC(=O)CNC(=O)[C@H](Cc1ccccc1)NC(=O)[C@H](CC(N)=O)NC(=O)[C@H](CC(N)=O)NC(=O)[C@H](CO)NC(=O)[C@H](CO)NC(=O)[C@H](Cc1c[nH]cn1)NC(=O)[C@H](Cc1c[nH]cn1)NC(=O)[C@H](CC(C)C)NC(=O)[C@H](Cc1ccccc1)NC(=O)[C@H](CCC(=O)O)NC(=O)[C@H](C)NC(=O)[C@H](CC(C)C)NC(=O)[C@H](CCCNC(=N)N)NC(=O)[C@H](CCC(N)=O)NC(=O)[C@@H](NC(=O)[C@H](C)NC(=O)[C@@H]1CSSC[C@H](NC(=O)[C@@H](N)CCCCN)C(=O)N[C@@H](CC(N)=O)C(=O)N[C@@H]([C@@H](C)O)C(=O)N[C@@H](C)C(=O)N[C@@H]([C@@H](C)O)C(=O)N1)[C@@H](C)O)C(=O)N[C@@H](CC(C)C)C(=O)N1CCC[C@H]1C(=O)N1CCC[C@H]1C(=O)N[C@H](C(=O)N[C@@H](CC(N)=O)C(=O)N[C@H](C(=O)NCC(=O)N[C@@H](CO)C(=O)N[C@@H](CC(N)=O)C(=O)N[C@H](C(=O)N[C@@H](Cc1ccc(O)cc1)C(N)=O)[C@@H](C)O)C(C)C)[C@@H](C)O [Example 73, N-epsilon25-[2-(2-{2-[2-(2-{2-[(S)-4-Carboxy-4-(17-carboxyheptadecanoylamino)butyrylamino]ethoxy}ethoxy)acetylamino]ethoxy}ethoxy)acetyl]-[Glu14,His17,Lys25]-pramlintide] (H-KCNTATCATQRLAEFLHHSSNNFGK([AEEA-AEEA-γGlu-C18 diacid])ILPPTNVGSNTY-NH2; disulfide 2-7 (inferred); N-terminus and C-terminus assumed) | 29 | 2 | > 200 | > 200 | 155 (≈ 736 µg/mL) | 155 (≈ 736 µg/mL) | 169 (≈ 803 µg/mL) | > 200 | > 200 | > 200 | > 200 | > 200 | 155 (≈ 736 µg/mL) | – | – | – | –
4 | CC[C@H](C)[C@H](NC(=O)[C@@H]1CCCN1C(=O)CNC(=O)[C@H](Cc1ccccc1)NC(=O)[C@H](CC(N)=O)NC(=O)[C@H](CC(N)=O)NC(=O)[C@H](CO)NC(=O)[C@H](CO)NC(=O)[C@H](CCCNC(=N)N)NC(=O)[C@H](Cc1c[nH]cn1)NC(=O)[C@H](CC(C)C)NC(=O)[C@H](Cc1ccccc1)NC(=O)[C@H](CCC(=O)O)NC(=O)[C@H](C)NC(=O)[C@H](CC(C)C)NC(=O)[C@H](CCCNC(=N)N)NC(=O)[C@H](CCC(N)=O)NC(=O)[C@@H](NC(=O)[C@H](C)NC(=O)[C@@H]1CSSC[C@H](NC(=O)[C@H](Cc2c[nH]cn2)NC(=O)CC[C@H](NC(=O)CCCCCCCCCCCCCCCCCCC(=O)O)C(=O)O)C(=O)N[C@@H](CC(N)=O)C(=O)N[C@@H]([C@@H](C)O)C(=O)N[C@@H](C)C(=O)N[C@@H]([C@@H](C)O)C(=O)N1)[C@@H](C)O)C(=O)N[C@@H](CC(C)C)C(=O)N1CCC[C@H]1C(=O)N1CCC[C@H]1C(=O)N[C@H](C(=O)N[C@@H](CC(N)=O)C(=O)N[C@H](C(=O)NCC(=O)N[C@@H](CO)C(=O)N[C@@H](CC(N)=O)C(=O)N[C@H](C(=O)N[C@@H](Cc1ccc(O)cc1)C(N)=O)[C@@H](C)O)C(C)C)[C@@H](C)O [Example 1, N-alpha-[(S)-4-Carboxy-4-(19-carboxynonadecanoylamino)butyryl]-[His1,Glu14,His17,Arg18]-pramlintide] ({C20 diacid-γGlu}-HCNTATCATQRLAEFLHRSSNNFGPILPPTNVGSNTY-NH2; disulfide 2-7 (inferred)) | 50 | 45 | 52 (≈ 233 µg/mL) | 16 (≈ 71.7 µg/mL) | – | 15 (≈ 67.3 µg/mL) | 58 (≈ 260 µg/mL) | 138 (≈ 619 µg/mL) | > 200 | > 200 | > 200 | > 200 | – | – | – | 93 | 92
